Experimental data published in the supplement of paper PMC4954754.
± gives the uncertainty stated by the source.

How the values were obtained:
Settings in all cases: 18 h
[1] = test system: HEK293T-Rex ERSE-FLuc; experiment: EC50 for ERSE-FLuc reporter activation
Procedure: (§1)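 Dose-response of hit compounds in HEK293T-Rex cells stably expressing ERSE-FLuc or XBP1-RLuc reporters, 18 hr treatment, 1536-well; luminescence normalised to 500 nM thapsigargin (100%) and DMSO (0%), fitted to give EC50 (M) and maximal activation; '>' marks EC50 above the top tested dose (~17 µM).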

[2] = test system: HEK293T-Rex XBP1-RLuc; experiment: EC50 for XBP1-RLuc reporter activation
Procedure: as §1

[3] = test system: HEK293T-Rex XBP1-RLuc; experiment: maximal XBP1-RLuc activation from dose-response fit, relative to thapsigargin (% of thapsigargin); higher = stronger activation
Procedure: as §1

[4] = test system: HEK293T-Rex ERSE-FLuc; experiment: maximal ERSE-FLuc activation from dose-response fit, relative to thapsigargin (% of thapsigargin); higher = stronger activation
Procedure: as §1

| Structure (SMILES) | EC50 for ERSE-FLuc reporter activation [1] | EC50 for XBP1-RLuc reporter activation [2] | maximal XBP1-RLuc activation [3] | maximal ERSE-FLuc activation [4] |
| --- | --- | --- | --- | --- |
| COc1ccc(-c2nn(-c3ccccc3)cc2/C=C/C(=O)O)cc1[N+](=O)[O-] | > 18.5 µM | > 18.5 µM | 6.98 ± 2.8 | 20.8 ± 4.1 |
| OCCNc1nc(Nc2ccc(Br)cc2)nc2ccccc12 | 4.93 µM | 7.94 µM | 57 ± 8.1 | 132 ± 7.4 |
| COc1ccc(C2=Nn3c(nnc3-c3ccc(OC)cc3)SC2)cc1 | > 16.9 µM | > 16.9 µM | 16 ± 2.4 | 17 ± 5.2 |
| O=C(N/N=C/c1cccc2ccccc12)c1ccc2c(c1)OCO2 | > 16.9 µM | > 16.9 µM | 0.725 ± 0.6 | 25.3 ± 5.6 |
| O=C(/C=C/c1ccco1)Nc1ccccn1 | > 16.9 µM | > 16.9 µM | 1.83 ± 1.4 | 18.7 ± 4.8 |
| COc1c(O)cc2oc(-c3ccc(O)c(O)c3)cc(=O)c2c1O | 3.69 µM | 8.02 µM | 57.9 ± 2.8 | 129 ± 3.5 |
| Nc1ccc2nc(-c3ccc(Cl)cc3)[nH]c2c1 | > 5.63 µM | > 16.9 µM | 35.3 ± 12 | 68.5 ± 6.7 |
| Cc1ccc(O)c(NC(=O)c2cc(-c3ccc(O)cc3)on2)c1 | 9.05 µM | > 16.9 µM | 30.8 ± 5.7 | 58.9 ± 2.1 |
| CCCNC(=O)c1ccc2nc(-c3ccc4[nH]ccc4c3)sc2c1 | > 17.4 µM | > 17.4 µM | 2.49 ± 1.2 | 13.9 ± 6.1 |
| O=C(NCCc1ccccc1)c1cc(-c2cccs2)on1 | 12.4 µM | > 16.9 µM | 8.27 ± 3.3 | 64.6 ± 9.1 |
| C=CCNC(=O)c1cc(-c2cccs2)on1 | 5.28 µM | > 16.9 µM | 12.8 ± 0.79 | 124 ± 2.7 |
| COc1cccc(C2=NOC(C(=O)Nc3cc(C)ccc3O)C2)c1 (stereo unspecified) | 7.27 µM | > 16.9 µM | 35.1 ± 3 | 92.8 ± 22 |
| COc1ccc(-c2cc(C(=O)Nc3cc(C)ccc3O)on2)cc1OC | > 16.9 µM | > 16.9 µM | 9.55 ± 5.6 | 29.1 ± 5.3 |
| Nc1ccc(-c2nc3cc(N)c(Cl)cc3[nH]2)cc1 | > 14.7 µM | > 14.7 µM | 17.6 ± 0.39 | 29.6 ± 7.5 |
| Nc1ccc2nc(-c3ccc(Br)cc3)[nH]c2c1 | 12.5 µM | 17.3 µM | 51.4 ± 4.2 | 74.6 ± 19 |
| N/C(=N\N=C\c1ccc(O)c(O)c1)c1nonc1N | 5.38 µM | > 16.9 µM | 41.6 ± 6.1 | 96.9 ± 3.7 |
| O=C(CC(=O)Nc1ccc2nc3n(c(=O)c2c1)CCCCC3)NCc1ccco1 | 8.59 µM | > 16.9 µM | 40.7 ± 7.4 | 77.9 ± 9.8 |
| CN(C)c1ccc(C2C(C#N)=C(N)Oc3c2sc2ccccc32)cc1[N+](=O)[O-] (stereo unspecified) | > 17.2 µM | > 17.2 µM | 4.37 ± 1 | 15.8 ± 4.9 |
| Cc1ccc(C(=O)Nc2sc3c(c2C#N)CCC3)cc1 | > 16.7 µM | > 16.7 µM | 2.39 ± 0.61 | 17.6 ± 5 |
| Cc1nc(-c2ccc(C(=O)Nc3ccc(O)cc3)cc2)cs1 | > 16.9 µM | 12.9 µM | 65.5 ± 3.6 | 27.7 ± 1.8 |
| CC(=O)Oc1cc(N2CCOCC2)c(OC(C)=O)c2c1C(=O)c1ccccc1C2=O | > 16.9 µM | > 16.9 µM | 3.44 ± 3.3 | 9.5 ± 2.7 |
| COc1ccccc1-c1cc(C(=O)Nc2cc(C)ccc2O)no1 | > 16.9 µM | > 16.9 µM | 18 ± 2.5 | 25.7 ± 7.9 |

| Structure (SMILES) | EC50 for ERSE-FLuc reporter activation [1] | EC50 for XBP1-RLuc reporter activation [2] | maximal XBP1-RLuc activation [3] | maximal ERSE-FLuc activation [4] |
| --- | --- | --- | --- | --- |
| CCc1cc2c(=O)c(-c3ccc4c(c3)OCCO4)coc2cc1OC | > 15 µM | > 15 µM | 14.1 ± 1.5 | 31.2 ± 5.7 |
| COc1cc2ccccc2cc1C(=O)N/N=C/c1cccs1 | > 16.9 µM | > 16.9 µM | 5.33 ± 6.5 | 21.5 ± 3.6 |
| Cc1cc(C)nc(/N=C(\N)Nc2ccc(OCc3ccccc3)cc2)n1 | > 14.6 µM | 0.788 µM | 94.2 ± 4.2 | 46.9 ± 15 |
| O=C(Nc1ccc2c(c1)OCCO2)C(=O)Nc1ccccc1Cl | > 16.9 µM | > 16.9 µM | 2.68 ± 2.8 | 16.5 ± 0.52 |
| COc1ccc(-c2csc(N(CC3CCCO3)C(=O)CCl)n2)cc1 (stereo unspecified) | > 16.9 µM | > 16.9 µM | 10.3 ± 0.8 | 17.5 ± 3.4 |
| O=C(N/N=C/c1ccc(Cl)cc1Cl)c1ccc(O)c(O)c1 | > 16.9 µM | > 16.9 µM | 47 ± 2.7 | 32.6 ± 8 |
| CCOc1cccc(/C=C2\NC(=S)N(C)C2=O)c1O | > 16.9 µM | > 16.9 µM | 0.0882 ± 1.7 | 6.21 ± 2 |
| Nc1nc(Nc2ccc(Cl)c(Cl)c2)nc2ccccc12 | 7.93 µM | 12.3 µM | 61.9 ± 4 | 138 ± 11 |
| NC(=O)c1c(NC(=O)c2cccc3ccccc23)sc2c1CCC2 | > 16.9 µM | > 16.9 µM | 23.1 ± 6.4 | 21.9 ± 5.8 |
| COc1ccccc1OCC(=O)Nc1cc(C)ccc1O | > 16.9 µM | > 16.9 µM | 22.9 ± 1.1 | 45.8 ± 4.2 |
| CCN1C(=O)/C(=C\c2ccc(O)cc2O)SC1=S | > 16.9 µM | > 16.9 µM | 13.3 ± 1.5 | 30.9 ± 10 |
| OCCNc1nc(Nc2ccc(Cl)cc2)nc2ccccc12 | 6.19 µM | 9.68 µM | 87.4 ± 1.1 | 155 ± 12 |
| OCCNc1nc(Nc2ccc(Cl)c(Cl)c2)nc2ccccc12 | 4.13 µM | 4.98 µM | 73.7 ± 9 | 144 ± 47 |
| O=C1N/C(=C/c2ccc(O)cc2)C(=O)N1Cc1ccc(Br)cc1 | > 15.8 µM | 4.02 µM | 70.6 ± 14 | 47.9 ± 1.7 |
| O=c1cc(-c2ccc(O)c(O)c2)oc2ccccc12 | > 17.1 µM | > 17.1 µM | 43.9 ± 0.95 | 32.7 ± 5 |
| Oc1ccc(/C=N/Nc2cccc3cccnc23)cc1O | > 16.9 µM | > 16.9 µM | 35 ± 3.2 | 30.7 ± 5.1 |
| Oc1ccccc1/C=N\Nc1nc2ccccc2o1 | > 17.3 µM | > 17.3 µM | 19.8 ± 1.3 | 12.4 ± 3.9 |
| O=c1[nH]c(/C=C2\C=Nc3ccccc32)c(O)n1-c1cccc(Cl)c1 | 2.5 µM | 2.18 µM | 74.9 ± 7.7 | 67.9 ± 1 |
| O=C(N/N=C/c1ccc2c(c1)OCO2)c1cccc(F)c1 | > 16.9 µM | > 16.9 µM | 5.7 ± 0.65 | 20.8 ± 5.2 |
| O=C(Nc1ccc(O)cc1)c1ccc2ccccc2c1 | > 16.9 µM | > 16.9 µM | 16.2 ± 1.5 | 31.4 ± 2.5 |
| CCN(CC)c1ccc2cc(-c3nc4ccccc4n3C)c(=O)oc2c1 | > 10.6 µM | > 10.6 µM | 2.95 ± 3.5 | 22.8 ± 1.6 |
| COC(=O)c1ccc(C(=O)Nc2ccccc2N)cc1 | 9.08 µM | > 17.8 µM | 28 ± 2.5 | 91.1 ± 14 |
